Our source for the melting point values is a melting point compilation (Tetko et al.; mined from patent text by program, amines drawn as free bases though some values may be those of a salt).

Broadly, the melting point is the temperature, or range, at which the solid turns liquid.

For the molecule `COc1cc(OC)c2c(=O)oc(=O)[nH]c2c1`, the melting point fell in the range of 287 to 293 °C.

Take `CC(C)n1nc(-c2[nH]c(=O)c(N)nc2-c2ccccc2)ccc1=O`: the melting point is above 250 °C. Then `COc1cc2c(cc1OC)CN(CCCOc1ccc(NC(=O)c3nc4cc(C)c(C)cc4nc3OC)cc1)CC2`, with 158 °C; and `Cn1nc(-c2ccccc2)c(O)c1-c1ccccc1`, with 157 to 160 °C. The figure for `CN1CCC(Oc2cc(Cl)ccc2C(N)=O)C1` (centres undefined) is 122 to 123 °C. `CC(C)(C)c1cc(C=O)c(O)c(S(=O)(=O)CCl)c1` showed a melting point of 128 to 129 °C. Then `CC(C)NS(=O)(=O)c1cc(Br)c(N)c(Br)c1`, with 181 to 183 °C. In the case of `CCCN1C(=O)N2C[C@@H](Cc3ccccc3)N=C2c2c1nc(CCl)n2Cc1ccccc1`, the melting point lay in the range of 112 to 113 °C.

`Cc1ccc(C(=O)c2ccc(Cc3ccc(N)cc3)n2C)c(C)c1` showed a melting point of 108 °C. Take `CCN1CCCC1CNC(=O)c1nc(Cl)c(N)nc1OC` (centres undefined): the melting point is 155 °C. In the case of `CC(C)C[C@@H](OS(=O)(=O)c1ccc([N+](=O)[O-])cc1)C(=O)O`, the melting point fell in the range of 60 to 62 °C.

In turn, `O=C(O)c1cc(OCCCCCCOc2ccc(-c3ccccc3)cc2)ccc1OCc1ccccc1` showed a melting point of 131 to 133 °C. Molecule `CCN(CC)C(=O)NC1CC2c3cccc4[nH]c(C(C)=O)c(c34)CC2N(C)C1` (centres undefined) displayed a melting point of 114 to 116 °C. Molecule `CNC(=O)Oc1ccc(NC(=O)C(Cl)Cl)c(C)c1` registered a melting point of 199 to 201 °C.

Consider `Cc1cc(Cc2cc(C(C)(C)C)cc(C(C)(C)C)c2O)c(O)c(-n2nc3ccccc3n2)c1`, for which the melting point was determined as 171 °C. `COc1cc(CI)ccc1C12CC3CC(CC(C3)C1)C2` displayed a melting point of 143 to 144 °C. As to `COC(=O)CN1CCN(C(=O)OC(C)(C)C)C(Cc2ccc(OCc3ccccc3)cc2)C1=O` (centres undefined), the melting point lay in the range of 84 to 87 °C.

`O=C(CN(C(=O)OCc1ccccc1)c1ccc(Cl)cc1)NCCc1ccc(OCc2ccccc2)c(OCc2ccccc2)c1` gave a melting point of 114 to 116 °C.

Consider `COC(CNC(=O)CCN1C(=O)N(C)C(=O)C1(C)C)OC`, for which the melting point amounted to 86.4 °C.

`CCOc1ccc(C2=NN(CCCCCC(=O)O)C(=O)[C@H]3CC=CC[C@@H]23)cc1OCC` (relative stereo) showed a melting point of 97 to 99 °C. For `CCCN(CCCCNC(=O)N1CC=C(c2ccccc2)CC1)C1CCc2ncsc2C1` (centres undefined), the melting point was determined as 115 °C. In the case of `Brc1ccc(C#Cc2c3ccccc3c(C#Cc3ccc(Br)cc3)c3ccccc23)cc1`, the melting point came to 305 °C. On to `Cc1ccc(N)cc1C(=O)NS(C)(=O)=O`, for which the melting point was 174 to 176 °C.

Molecule `CC(C(=O)O)c1c(Sc2ccccc2)c2cc(F)ccc2n1Cc1ccc(Cl)cc1` (centres undefined) had a melting point of 80 to 82 °C. For the molecule `Cn1c(S)nnc1COCC(=O)O`, the melting point was 155 to 156 °C. The molecule `CS(=O)(=O)c1ccc(-c2cnn(CC(=O)c3ccc(C#N)cc3)c(=O)c2-c2ccc(F)cc2)cc1` had a melting point of 188 to 189 °C. With `O=C(Nc1ccc2nc(CN3CCCCC3)ccc2c1)c1ccc(-c2ccc(F)cc2F)cc1`, the melting point was in the range of 181 to 182 °C.

`COC(=O)c1cccn2c(C(=O)c3ccc(N4C[C@H](CNC(C)=O)OC4=O)cc3)cnc12` came in with a melting point of 202 to 204 °C. In turn, `COc1cc(C)nc(-n2nc(C)n(NS(=O)(=O)c3ccccc3OC(F)(F)F)c2=O)n1` came in with a melting point of 248 °C. The figure for `COc1cc(-c2nc(Nc3ccc(C)cc3)c3ccccc3n2)cc(OC)c1OC` is above 250 °C; for `CCCC1=C([N+](=O)[O-])C(c2cccc3c2OCCC3)c2c[nH]nc2N1` (centres undefined) it is 234 °C; for `CCOC(=O)CC(O)c1ccc2c(c1)CC(CNS(=O)(=O)c1ccc(Cl)cc1)C2` (centres undefined) it is 108 to 111 °C. In turn, `COC(=O)c1ccc2cc(C(O)c3ccc4c(c3)C3(C)C5(C)CCC(C5)C3(C)O4)ccc2c1` (centres undefined) returned a melting point of 140 to 141 °C. Then `Cn1c(-c2ccc(-c3nccs3)cc2)cnc1[C@H](Cc1ccccn1)N(C=O)c1cc2cc(Cl)ccc2o1`, with 144 to 146 °C; and `Cc1c(-c2ccccc2)c(OCc2ncnn2C)nn2c(-c3ccccc3)nnc12`, with 195 °C. Consider `COc1c(-c2ccc3cc(NS(C)(=O)=O)ccc3c2)cc(-n2ccc(=O)[nH]c2=O)cc1C(F)(F)C(F)(F)F`, for which the melting point fell in the range of 162 to 165 °C. For `CCCCCCCCCOc1ccc(Cl)c(C(N)=O)c1F`, the melting point is 75 to 77 °C. For `Cc1ccsc1-c1nc(COc2ccc(CCCn3ccnc3)cc2)co1`, the melting point was 72 to 73 °C. Molecule `Nc1cc(-c2c(-c3ccc(Cl)cc3)nc3ccc(N4CC5CNCC5C4)nn23)ccn1` (centres undefined) registered a melting point of 267 to 270 °C. The figure for `CCn1c(=O)c2[nH]c(/C=C/c3cc(F)cc(F)c3)nc2n(CC)c1=O` is above 280 °C; for `CN(C)Cc1cccc(Cc2cnc(N[N+](=O)[O-])[nH]c2=O)c1` it is 232 to 235 °C. In turn, `C#CCc1c(C)nc2c(OCc3c(C)cccc3N)cccn12` yielded a melting point of 144 to 146 °C. The figure for `O=C1CCSc2c1ccc(Cl)c2Cl` is 93 to 102 °C; for `Cc1nc(C(=O)NC(C)(CO[N+](=O)[O-])CO[N+](=O)[O-])cs1` it is 78 to 81 °C.

`O=C(Nc1cccc2ccccc12)N[C@H]1C[C@H](C(=O)O)Nc2cc(Cl)cc(Cl)c21` (relative stereo) gave a melting point of 241 to 242 °C. Molecule `COc1cc(OC)c(OC(=O)CS(=O)(=O)Nc2c(C(C)C)cccc2C(C)C)c(OC)c1` had a melting point of 167 to 170 °C. In turn, `CCn1c2ccc(C(=O)CCCCCl)cc2c2cc(C(=O)CCCCCl)ccc21` returned a melting point of 94 to 95 °C. In turn, `NC(=O)c1nnn(Cc2cc(Br)cc(C(Cl)=C(Cl)Cl)c2)c1N` registered a melting point of 175 to 177 °C.

Molecule `ON1Cc2ccccc2C1=S` returned a melting point of 110 to 111 °C. Then `COc1ccc2ccccc2c1-c1c(C)c2c(c(C)c1P(c1ccccc1)c1ccccc1)COC2`, with 159 °C; and `CCOC(=O)/C=C/c1ccc(OCCOC)cc1OS(=O)(=O)C(F)(F)F`, with 37.1 to 37.3 °C.

`Cc1c(C)c2c(c(C)c1O)CC[C@@](C)(CO)O2` had a melting point of 124 to 128 °C. Regarding `O=C(O)C1=CCCN(Cc2ccc(Cl)c(Cl)c2)C1`, the melting point was in the range of 240 to 245 °C.

In the case of `N#Cc1ccc(-c2cncc(OC3SCC(O)C(O)C3O)c2)cc1Cl` (centres undefined), the melting point fell in the range of 202 to 204 °C. In turn, `OC(=S)c1cc(C(F)(F)F)ccc1O` registered a melting point of 122 to 125 °C. For the molecule `COCCC1CCN(c2ccc(C#N)c3ccccc23)CC1`, the melting point lay within 95 to 96 °C. Consider `Clc1ccc2c(c1)CCC(N1CCCC1)=C2`, for which the melting point was 117 to 118 °C.

`CN(C)CC(O)Cn1c2ccccc2c2c3c(c4c5ccccc5n(C)c4c21)C(=O)NC3=O` (centres undefined) returned a melting point of 130 to 135 °C. Molecule `Cc1nc2cc3c4c(cccc4c2[nH]1)C(=O)N(O)C3=O` returned a melting point above 330 °C. `CON=C(C)c1cc(C[C@H](NC(=O)c2c(Cl)cccc2Cl)C(=O)O)ccc1-c1ccccc1OC` yielded a melting point of 107 °C. Then `Clc1ccc(-c2noc(CCC#Cc3ccccn3)n2)c(Cl)c1`, with 77 to 78 °C; and `CNc1ccc(OC)cc1[N+](=O)[O-]`, with 93 to 94 °C. `CC(=O)c1cc2c(c(Cl)c1O)OC(C(O)=NO)C2` (centres undefined) returned a melting point of 234 to 235 °C.

On to `COC1=C(OC)C(=O)C(CCCCC[C@H]2CC[C@H](O)CC2)=C(C)C1=O`, for which the melting point lay within 49 to 51 °C. The figure for `Nc1ccc(Oc2cccc(Oc3ccc(N)cc3)n2)cc1` is 152 to 154 °C. Turning to `NC(N)=Nc1nc(-c2cccc(CCl)n2)cs1`, the melting point is 260 to 261 °C. Regarding `Cn1cc(C(=O)c2ccncc2)cc1C(=O)c1ccccc1`, the melting point was 127 to 129 °C.

Consider `COc1cc2c(CC#N)c(Br)[nH]c2cc1Br`, for which the melting point lay in the range of 169 to 171 °C. In the case of `CCCCc1nc2c(N)nc(C)c(C)c2n1CCCCCS(N)(=O)=O`, the melting point turned out to be 130 °C. Consider `Cc1nc(-c2cc(C#N)c(=O)[nH]c2C)cs1`, for which the melting point was 305 to 307 °C.

In the case of `CC(=NO)c1ncc(C)nc1C`, the melting point was 85 to 89 °C. For `CCC(CC)n1ncn(-c2ccc(N3CCNCC3)cc2)c1=O`, the melting point was in the range of 135 to 137 °C.

In turn, `COC(=O)CCCc1cc2nc(Cl)ccc2n1S(=O)(=O)c1ccc2ncsc2c1` showed a melting point of 55 °C. `Cn1c(COc2ccc(CC3SC(=O)NC3=O)cc2)nc2cncnc21` (centres undefined) gave a melting point of 244 to 246 °C. Turning to `O=C(O)Cc1n[nH]c2c(=O)[nH]c3cc(Cl)ccc3c(=O)c12`, the melting point lay in the range of 297 to 300 °C. The figure for `COc1cc(NC(=O)c2ccccc2Cl)ccc1C(=O)N1CCCC(OCCNC(N)=O)c2cc(Cl)ccc21` (centres undefined) is 206 to 207 °C; for `CC(C)Cc1nc(N)c(C(=O)c2c[nH]c3ccccc23)[nH]c1=O` it is 228 to 230 °C; for `CCNC(=O)CCC(=O)c1ccc(NS(C)(=O)=O)cc1` it is 210 to 213 °C. Molecule `CC(=O)OC1C2C=CC1C1N=NC21` (centres undefined) registered a melting point of 58 °C. Consider `Cc1cc(F)c(-n2ccc(O)n2)cc1SCC(F)(F)F`, for which the melting point lay within 166 to 168 °C. `COC(=O)CC1Cc2ccc(OC)cc2NC1=O` (centres undefined) came in with a melting point of 152 to 155 °C. Then `CCCCCCCCCCCCCCOc1ccc(CC(=O)Nc2cccc(CBr)c2)cc1`, with 116 to 118 °C; and `CC(C)(CO)CNC(=O)c1nn(C2CCCCO2)cc1NC(=O)c1ccccn1` (centres undefined), with 189 to 190 °C; and `CCOP(=O)(NCc1ccc2c(c1)-c1n[nH]c(=O)c3cccc(c13)O2)OCC`, with 222 to 224 °C. The molecule `O=C(O)C(=O)c1ccc(Br)s1` yielded a melting point of 119 to 120 °C. `N#Cc1cc2c(c(-c3ccccc3Cl)c1)OC(CN)C2` (centres undefined) had a melting point of 173 to 175 °C. For `O=c1[nH]cccc1CO`, the melting point fell in the range of 203 to 205 °C.

Consider `COCCOCCNc1ncnc2c1cnn2-c1cc(C)cc(C)c1`, for which the melting point worked out at 90.4 °C. `CC1=CC2C(CC1)C(c1ccc(F)cc1)=NC(=O)N2C(C)C` (centres undefined) had a melting point of 154 to 158 °C.
